Values joined by “and” are separate entries in the source; they are usually repeats but may differ in a detail not shown here. Equal values may be shown once. ± gives the expanded uncertainty stated by the source.
Conditions: 313.15 K; Liquid; Closed cell (Static) method

| SMILES | vapor or sublimation pressure |
| --- | --- |
| COC(C)(C)C [2-methoxy-2-methylpropane] | 59.92 ± 0.21 kPa and 59.91 ± 0.21 kPa |
| CCCCCC [hexane] | 37.3 ± 0.14 kPa and 37.25 ± 0.14 kPa |
| CCCO [propan-1-ol] | 6.999 ± 0.038 kPa and 7.007 ± 0.038 kPa and 7 ± 0.038 kPa |

Source: the NIST ThermoML archive (doi:10.1021/je060253t)
